According to patent US20250345309A1, “IMMUNE HEALTH IMPROVERS” (Amazentis SA, priority 2024, published 2025):

Assays:
circulating immune cells = assay: Clinical hemocytometry of circulating immune cells; type: in vivo, human; details: d28 vs baseline, 1000 mg/day oral
Description: During the baseline and follow-up visits, blood was drawn by a physician or physician's assistant to assess blood biochemistry parameters and haematology. Analysis was performed using clinically validated systems at the University Hospital Frankfurt, Germany. The aim of the present study was to globally assess the effect of UA on the immune system, in particular with respect to parameters of immune aging. We therefore performed clinical hemocytometry to first categorize circulating immune cells, comparing immune composition at baseline and upon the last study visit (FIG. 1A).

PBMCs = assay: Spectral flow cytometry immune phenotyping of PBMCs; type: in vivo, human
Description: Spectral flow cytometry to broadly analyse immune composition was performed on PBMCs from 25 UA and 25 placebo individuals from the cohort. Flow cytometry staining was performed in three batches, to minimize batch-related effects.
PBMC were thawed and allowed to recover for 3 hours in uncoated cell culture dishes. All samples for any particular donor series were thawed together. For the intracellular panel, cells were stained after recovery with the surface panel, then fixed and permeabilized using the ThermoFisher Foxp3 fix/perm system, followed by staining for intracellular markers. For the surface-only panel, cells were treated with Bafilomycin A1 (0.5 μM) for 45 minutes, followed by 45 minutes incubation with 5-dodecanoylaminofluorescein di-β-D-galactopyranoside (C12FDG) before harvest and surface staining. All cells were analyzed on a Cytek Aurora cytometer. FCS files were exported into FlowJo (BD) for further analysis.
Raw data for all 64 output channels were unmixed using library single-color reference controls for each marker. Spectral compensation for the resulting unmixed data was corrected by manually adjusting a 31×31 matrix of spectral overlaps. Once the data was properly compensated, each individual marker was checked for signal and specificity. The resulting data was then manually gated using a representative sample. The gates are then applied to the other samples in the batch, while spot-checking the gating of the other samples for consistency with the first sample gated.

T cells = assay: T cell stimulation assay (αCD3/αCD28 beads, four days); type: in vivo, human; details: PBMCs ex vivo
Description: To study the antigen response of T cells, 0.5×10^6 thawed PBMCs were pre-stained with CellTrace Violet (C34557 ThermoFisher Scientific) according to the manufacturer's instructions. After washing, they were plated in a 24 well plate for 24 h to deplete monocyte populations by plastic adherence. Next, cells in suspension were transferred to a new tube and centrifuged at 350 g for 5 min, followed by reconstitution in fresh T cell medium. Cells were stimulated with human αCD3/C28 stimulation beads (Dynabeads, ThermoFirsher) for four days, using a ratio of 25 μl Beads per 0.5×10^6 cells. Following the stimulation period, magnetic beads were discarded via magnetic separation and cells were stained with PE-Cy7 CD4, APC-Cy7CD8, CD45RA FITC, CCR7 AF700 and live/dead ef780. To study cytokine expression, Brefeldin A (Biolegend) was added to stimulated PBMCs for the last 3 hours. Cells were then washed and stained using the panel above, while intracellular staining for cytokine assessment was performed with BD Cytofix/Cytoperm (BD) with 20 min fixation and overnight incubation with αIL-4-CF594, αIFNγ-PE (XMG1.2; 45-7311-82; eBioscience) and αTNFa-APC (MP6-XT22; 563944; BD). Finally, samples were fixed with 1% PFA until data acquisition. To functionally characterize the human immune system after systemic UA supplementation further, proliferative capacity and cytokine secretion of T cells was assessed. PBMCs from both intervention groups were incubated in the presence of αCD3/αCD28 stimulation beads for a total of four days (FIG. 10A).

plasma cytokines = assay: Plasma cytokine measurements (LEGENDplex); type: in vivo, human; details: d28 vs baseline, 1000 mg/day oral
Description: Inflammatory cytokines were measured using LEGENDplex™ HU Essential Immune Response Panel (BioLegend) according to the manufacturer's instructions. Plasma samples were diluted 1:1 in assay diluent as recommended and technical duplicates were used for both the standard curve and experimental samples. Analysis was performed with the provided software.

DNA methylation = DNA methylation biological age clocks (TruDiagnostic); type: in vivo, human; details: d28 vs start of intervention, 1000 mg/day oral; no decrease with placebo
Source text: Blood taken from the participants at baseline and the last study visit (d28) time points were applied to dried blood cards and processed by TruDiagnostic™. The test uses DNA methylation data analysis to calculate biological ages using the PhenoAge 2nd generation clock and the Hannum 1st generation clock. The Urolithin A intervention group's biological (immune cell-blood based) age was reduced by a median of about 2 years from the start of the intervention, as calculated by the PhenoAge clock (FIG. 11A). […] A decrease in biological age was not observed in the Placebo group.

TSCM = details: in vitro (Denk et al. Immunity 2022); cited from earlier work
[1] = Clinical trial adverse event reporting; details: Group A n = 25; 1000 mg/day oral, 28 days
[2] = 28 days, 1000 mg/day oral, vs placebo
[3] = d28, 1000 mg/day oral, between the two groups
[4] = d28, 1000 mg/day oral, not present after placebo

O=c1oc2cc(O)ccc2c2ccc(O)cc12 [Urolithin A]
Monocytes (total count) (circulating immune cells): did not show marked alterations | Neutrophiles (total count) (circulating immune cells): did not show marked alterations | Total leukocytes (count) (circulating immune cells): did not show marked alterations | Circulating eosinophiles (total count) (circulating immune cells; not observed with placebo): significantly more | Circulating lymphocytes (total count) (circulating immune cells; not observed with placebo): significantly more | CD8+ TEMRA (PBMCs; 28 days, 1000 mg/day oral): remained unaffected | CD8+ central memory cells (TCM) (PBMCs; 28 days, 1000 mg/day oral): remained unaffected | CD8+ virtual memory cells (TVM) (PBMCs; 28 days, 1000 mg/day oral): remained unaffected | CD8+ TSCM (PBMCs; 28 days, 1000 mg/day oral, UA vs placebo group): no differences | Proportion of naïve CD8+ T cells (TN) among total PBMCs (PBMCs; 28 days, 1000 mg/day oral, compared to placebo): increased | CD8+ effector memory cells (TEM) (PBMCs; [2]): concomitantly reduced | Percentage of CD4+ T cells among total PBMCs (PBMCs; [2]): no differences | Percentage of CD8+ T cells among total PBMCs (PBMCs; [2]): no differences | Percentage of circulating γδ T cells among total PBMCs (PBMCs; [2]): no differences | Percentage of total αβCD3+ T cells among total PBMCs (PBMCs; [2]): no differences | Nonclassical monocytes (CD14loCD16hi) among total PBMCs (PBMCs; after 28 days, 1000 mg/day oral, compared to placebo): increased | Ki67 in CD8+ cells (PBMCs; after last study visit (d28), 1000 mg/day oral, not present after placebo): more | CD4+ TCM population (PBMCs; d28, 1000 mg/day oral): no difference | CD4+ TEM population (PBMCs; d28, 1000 mg/day oral): no difference | CD4+ TN population (PBMCs; d28, 1000 mg/day oral): no difference | CD4+ TSCM population (PBMCs; d28, 1000 mg/day oral): no difference | CD4+ Th1 cells (T-bet) (PBMCs; d28, 1000 mg/day oral): no changes | CD56dimCD16bright NK cells among total PBMCs (PBMCs; d28, 1000 mg/day oral): markedly expanded | Circulating DCs (PBMCs; d28, 1000 mg/day oral): did not change | Circulating ILCs (PBMCs; d28, 1000 mg/day oral): did not change | Circulating T follicular helper cells (Tfh1, Bcl-6) (PBMCs; d28, 1000 mg/day oral): no changes | FoxP3+ Treg (PBMCs; d28, 1000 mg/day oral): no changes | Gata3+ Th2 cells (PBMCs; d28, 1000 mg/day oral): no changes | NK cell inhibitory receptor KIR expression (PBMCs; d28, 1000 mg/day oral): No change | NK cell inhibitory receptor KLRG1 expression (PBMCs; d28, 1000 mg/day oral): No change | NK cell inhibitory receptor NKG2A expression (PBMCs; d28, 1000 mg/day oral): No change | PD-1 expression in CD8+ cells (PBMCs; d28, 1000 mg/day oral): unaltered | Senescence marker p16 (PBMCs; d28, 1000 mg/day oral): no difference | Senescence marker p21 (PBMCs; d28, 1000 mg/day oral): no difference | Classical monocytes (PBMCs; [3]): did not undergo change | Intermediate monocytes (CD14hiCD16hi) (PBMCs; [3]): did not undergo change | Percentage of plasma cells among PBMCs (PBMCs; [3]): no changes | Percentage of plasmablasts among PBMCs (PBMCs; [3]): no changes | Percentage of total B cells among PBMCs (PBMCs; [3]): no changes | Specific B cell subsets (PBMCs; [3]): no changes | Senescence-associated β-galactosidase (SA-β-GAL) in circulating CD8+ cells (PBMCs; [4]): increased | TOX expression in CD8+ cells (PBMCs; [4]): small reduction | HLA-DR on classical monocytes (PBMCs; final study visit (d28), 1000 mg/day oral): less | CD8+ TCM/TEM phenotype distribution after CD3 receptor engagement (T cells): no treatment-specific distribution pattern | T cell proliferation (T cells; UA vs placebo, baseline vs d28): no difference | CD8+ expression of IFN-γ when stimulated (T cells; baseline vs d28): remained unchanged | IL-4 production of antigen challenged CD8+ cells (T cells; baseline vs d28, no change with placebo): reduced | Plasma IFN-γ level (plasma cytokines): significantly lower | Plasma IL-1β level (plasma cytokines): significantly lower | Plasma IL-2 level (plasma cytokines): significantly lower | Plasma IL-6 level (plasma cytokines): No difference | Plasma IL-8 level (plasma cytokines): No difference | Plasma IL-10 level (plasma cytokines): significantly lower | Plasma TNF-α level (plasma cytokines): significantly lower | Plasma interferon-gamma induced protein (IP-10) level (plasma cytokines): No difference | Plasma monocyte chemoattractant protein-1 (MCP-1) level (plasma cytokines): No difference | Reduction of biological (immune cell-blood based) age, PhenoAge clock, median (DNA methylation): about 2 years | TSCM formation (TSCM): induces TSCM formation | Post-emergent AEs: Infections and Infestations, Covid-19 [1]: 1 (4%) n (%)
